# From patent US20140155376A1, “PYRROLOPYRAZINE KINASE INHIBITORS” (Hoffmann-La Roche Inc., priority 2010, published 2014)
# pIC50: −log10 of the molar value.
# Target: T1, JAK3 (recombinant human kinase domain; h-jak3(810-1124)) (Homo sapiens, UniProt P52333)
# T1 construct: h-jak3(810- 1124)-sf9-c; made in house; host or cells: Sf9 insect cells
# Test: Determination of IC50 of Janus Kinase (JAK) inhibition: JAK3, radioactive end-point assay with 33P-ATP
# Assay type: biochemical
# Details: JAK3 kinase domain; ATP 1.5 uM, peptide 50 uM, 20 minutes, room temperature, 10% DMSO; read-out: Ic50 h-jak3(810-1124)-sf9-c:no additive
# Excerpt: Determination of IC50 of Janus Kinase (JAK) Inhibition:
# Enzymes and peptide substrate used are described below: • JAK1: Recombinant human kinase domain from Invitrogen (Cat # PV4774) • JAK3: Recombinant human kinase domain from Millipore (Cat #14-629) or prepared. • JAK2: Recombinant human kinase domain from Millipore (Cat #14-640) • Substrate: N-terminally biotinylated 14-mer peptide derived from activation loop of JAK1 with sequence of the peptide substrate: Biotin-[sequence]
# Assay Conditions Used are Described Below: • Assay Buffer: JAK Kinase Buffer: 50 mM Hepes [pH 7.2], 10 mM MgCl2, 1 mM DTT, • 1 mg/ml BSA. The assay is carried out in this buffer. • Assay Format The kinase activity of all three JAK kinases is measured using a radioactive, end-point assay and with trace amounts of ^33P-ATP. The assays are carried out in 96-well polypropylene plates.
# All concentrations are final in the reaction mixture and all incubations are carried at room temperature. […] Final concentration of DMSO in the reaction is 10%. • 2) Compounds are preincubated with enzyme (0.5 nM JAK3 (commercially available), 0.2 nM JAK3 (prepared), 1 nM JAK2, 5 nM JAK1) for 10 minutes. • 3) Reactions are initiated by the addition of a cocktail of the two substrates (ATP and peptide premixed in the JAK Kinase Buffer). In the JAK2/JAK3 assays, ATP and the peptide are used at concentrations of 1.5 uM and 50 uM, respectively. JAK1 assay is carried out at an ATP concentration of 10 uM and a peptide concentration of 50 uM. • 4) The duration of the assay for JAK2 and JAK3 is 20 minutes. JAK1 assay is carried out for 40 minutes. With all three enzymes, reactions are terminated by the addition of 0.5M EDTA to a final concentration of 100 mM. • 5) 25 ul of terminated reactions are transferred to 150 ul of a 7.5% (v/v) slurry of streptavidin-coated sepharose beads in MgCl2- and CaCl2-free 1× Phosphate Buffered Saline containing 50 mM of EDTA in 96-well, 1.2 um MultiScreen-BV filter plates. • 6) After a 30-minute incubation, the beads are washed under vacuum with the following buffers: • a. 3 to 4 washes with 200 ul of 2M NaCl. • b. 3 to 4 washes with 200 ul of 2M NaCl plus 1% (v/v) phosphoric acid. • c. 1 wash with water. • 7) Washed plates are dried in a 60° C. oven for between 1 to 2 hours. • 8) 70 ul of Microscint 20 scintillation fluid is added to each well of filter plates and after at least 30 minutes of incubation, radioactive counts are measured in a Perkin-Elmer microplate scintillation counter.
# T1 sequence (P52333 810-1124): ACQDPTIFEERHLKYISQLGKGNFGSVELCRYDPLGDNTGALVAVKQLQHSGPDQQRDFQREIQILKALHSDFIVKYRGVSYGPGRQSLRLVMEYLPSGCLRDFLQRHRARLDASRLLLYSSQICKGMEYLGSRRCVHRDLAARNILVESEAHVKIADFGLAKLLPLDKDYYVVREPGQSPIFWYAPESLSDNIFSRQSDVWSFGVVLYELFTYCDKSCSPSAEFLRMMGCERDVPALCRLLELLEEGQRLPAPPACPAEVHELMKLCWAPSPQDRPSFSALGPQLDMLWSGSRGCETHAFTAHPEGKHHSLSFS
row,Compound,pIC50
1,"C[C@H](NC(=O)c1c[nH]c2ncc(C3CC3)nc12)[C@](C)(O)C(F)(F)F [Example I-63, 2-Cyclopropyl-5H-pyrrolo[2,3-b]pyrazine-7-carboxylic acid ((1S,2S)-3,3,3-trifluoro-2-hydroxy-1,2-dimethyl-propyl)-amide]",7.52
2,"CC(C)NC(=O)c1c[nH]c2ncc(Oc3cccc4c3OC(C)(C)C4)nc12 [Example I-254, 2-(2,2-Dimethyl-2,3-dihydro-benzofuran-7-yloxy)-5H-pyrrolo[2,3-b]pyrazine-7-carboxylic acid isopropylamide]",5.52
3,"CC[C@H](NC(=O)c1c[nH]c2ncc(C3CC3)nc12)C(C)(C)O [Example I-29, 2-Cyclopropyl-5H-pyrrolo[2,3-b]pyrazine-7-carboxylic acid ((S)-1-ethyl-2-hydroxy-2-methyl-propyl)-amide]",7.27
4,"C[C@@H](NC(=O)c1c[nH]c2ncc(C3CC3)nc12)C1(O)CCCC1 [Example I-82, 2-Cyclopropyl-5H-pyrrolo[2,3-b]pyrazine-7-carboxylic acid [(R)-1-(1-hydroxy-cyclopentyl)-ethyl]-amide]",7.82
5,"C[C@H](NC(=O)c1c[nH]c2ncc(C3CCCCC3)nc12)C(C)(C)O [Example I-11, 2-Cyclohexyl-5H-pyrrolo[2,3-b]pyrazine-7-carboxylic acid ((S)-2-hydroxy-1,2-dimethyl-propyl)-amide]",6.82
6,"CC[C@H](C)NC(=O)c1c[nH]c2ncc(Oc3ccccc3)nc12 [Example I-121, 2-Phenoxy-5H-pyrrolo[2,3-b]pyrazine-7-carboxylic acid ((S)-sec-butyl)-amide]",7.23
7,"COC[C@H](NC(=O)c1c[nH]c2ncc(C3CC3)nc12)C(C)(C)C [Example I-64, 2-Cyclopropyl-5H-pyrrolo[2,3-b]pyrazine-7-carboxylic acid ((R)-1-methoxymethyl-2,2-dimethyl-propyl)-amide]",7.45
8,"CCC[C@@](C)(O)[C@@H](C)NC(=O)c1c[nH]c2ncc(C3CC3)nc12 [Example I-84, 2-Cyclopropyl-5H-pyrrolo[2,3-b]pyrazine-7-carboxylic acid ((1R,2R)-2-hydroxy-1,2-dimethyl-pentyl)-amide]",7.19
9,"C[C@@H](NC(=O)c1c[nH]c2ncc(Oc3ccc(F)cc3F)nc12)C(C)(C)C [Example I-134, 2-(2,4-Difluoro-phenoxy)-5H-pyrrolo[2,3-b]pyrazine-7-carboxylic acid ((R)-1,2,2-trimethyl-propyl)-amide]",6.05
10,"CC(=O)N1CCC(CNC(=O)c2c[nH]c3ncc(C4CC4)nc23)C1 (stereo not shown) [Example I-137, 2-Cyclopropyl-5H-pyrrolo[2,3-b]pyrazine-7-carboxylic acid (1-acetyl-pyrrolidin-3-ylmethyl)-amide]",6.46
11,"CC(C)NC(=O)c1c[nH]c2ncc(Oc3ccc4c(c3)[C@H](NC(=O)C3CCOCC3)CC4)nc12 [Example I-283, 2-{(R)-3-[(Tetrahydro-pyran-4-carbonyl)-amino]-indan-5-yloxy}-5H-pyrrolo[2,3-b]pyrazine-7-carboxylic acid isopropylamide]",7.25
12,"CCC(CC)NC(=O)c1c[nH]c2ncc(C3CC3)nc12 [Example I-26, 2-Cyclopropyl-5H-pyrrolo[2,3-b]pyrazine-7-carboxylic acid (1-ethyl-propyl)-amide]",8.39
13,"C[C@@H](NC(=O)c1c[nH]c2ncc(-c3cccs3)nc12)C(C)(C)O [Example I-103, 2-Thiophen-2-yl-5H-pyrrolo[2,3-b]pyrazine-7-carboxylic acid ((R)-2-hydroxy-1,2-dimethyl-propyl)-amide]",8.14
14,"CC(C)NC(=O)c1c[nH]c2ncc(Oc3ccc4c(c3)[C@H](NC=O)CC4)nc12 [Example I-301, 2-((R)-3-Formylamino-indan-5-yloxy)-5H-pyrrolo[2,3-b]pyrazine-7-carboxylic acid isopropylamide]",6.93
15,"CC(=O)N[C@@H]1CCc2cc(Oc3cnc4[nH]cc(C(=O)N[C@@H](C)C(C)(C)C)c4n3)ccc21 [Example I-291, 2-((R)-1-Acetylamino-indan-5-yloxy)-5H-pyrrolo[2,3-b]pyrazine-7-carboxylic acid ((S)-1,2,2-trimethyl-propyl)-amide]",7.43
16,"Cc1ccc(CNC(=O)c2ccc(-c3cnc4[nH]cc(C(=O)N[C@@H](C)C(C)(C)C)c4n3)s2)o1 [Example I-193, 2-{5-[(5-Methyl-furan-2-ylmethyl)-carbamoyl]-thiophen-2-yl}-5H-pyrrolo[2,3-b]pyrazine-7-carboxylic acid ((S)-1,2,2-trimethyl-propyl)-amide]",9.38
17,"C[C@H](NC(=O)c1c[nH]c2ncc(-c3ccc(C(=O)N4CCCCC4)s3)nc12)C(C)(C)C#N [Example I-224, 2-[5-(Piperidine-1-carbonyl)-thiophen-2-yl]-5H-pyrrolo[2,3-b]pyrazine-7-carboxylic acid ((S)-2-cyano-1,2,2-trimethyl-ethyl)-amide]",9.44
18,"C[C@@H](NC(=O)c1c[nH]c2ncc(C3CC3)nc12)C1(C#N)CCCC1 [Example I-100, 2-Cyclopropyl-5H-pyrrolo[2,3-b]pyrazine-7-carboxylic acid [(R)-1-(1-cyano-cyclopentyl)-ethyl]-amide]",7.41
19,"CC(C)NC(=O)c1c[nH]c2ncc(Oc3cccc4c3CCCC4)nc12 [Example I-239, 2-(5,6,7,8-Tetrahydro-naphthalen-1-yloxy)-5H-pyrrolo[2,3-b]pyrazine-7-carboxylic acid isopropylamide]",5.28
20,"C=Cc1cccc(-n2cnc(-c3cnc4[nH]cc(C(=O)N[C@@H](C)C(C)(C)C)c4n3)c2)c1 [Example I-163, 2-[1-(3-Vinyl-phenyl)-1H-imidazol-4-yl]-5H-pyrrolo[2,3-b]pyrazine-7-carboxylic acid ((S)-1,2,2-trimethyl-propyl)-amide]",8.52
21,"CNC(=O)N[C@@H]1CCc2ccc(Oc3cnc4[nH]cc(C(=O)NC(C)C)c4n3)cc21 [Example I-292, 2-[(R)-3-(3-Methyl-ureido)-indan-5-yloxy]-5H-pyrrolo[2,3-b]pyrazine-7-carboxylic acid isopropylamide]",7.04
22,"C[C@H](NC(=O)c1c[nH]c2ncc(-c3ccc(C(=O)N4CC(CO)(CO)C4)s3)nc12)C(C)(C)C [Example I-218, 2-[5-(3,3-Bis-hydroxymethyl-azetidine-1-carbonyl)-thiophen-2-yl]-5H-pyrrolo[2,3-b]pyrazine-7-carboxylic acid ((S)-1,2,2-trimethyl-propyl)-amide]",9.89
23,"CC(C)NC(=O)c1c[nH]c2ncc(Oc3ccc4c(c3)CCCC4)nc12 [Example I-240, 2-(5,6,7,8-Tetrahydro-naphthalen-2-yloxy)-5H-pyrrolo[2,3-b]pyrazine-7-carboxylic acid isopropylamide]",6.50
24,"CC(C)C(C#N)NC(=O)c1c[nH]c2ncc(C3CC3)nc12 (stereo not shown) [Example I-89, 2-Cyclopropyl-5H-pyrrolo[2,3-b]pyrazine-7-carboxylic acid (1-cyano-2-methyl-propyl)-amide]",7.87
25,"CCNC(=O)c1c[nH]c2ncc(Oc3ccc4ccccc4c3)nc12 [Example I-262, 2-(Naphthalen-2-yloxy)-5H-pyrrolo[2,3-b]pyrazine-7-carboxylic acid ethylamide]",5.73
